Results taken from PubChem BioAssay AID1259411 (Chemical Carcinogenesis Research Information System (CCRIS), 2018).
Calls of active or inactive are those of the source. How the calls were made is not given here.

Tested on: rodent carcinogenicity bioassays, tumor incidence
Experiment: CCRIS carcinogenicity studies
In short: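 NCI-built, expert-reviewed records of carcinogenicity and related test outcomes (mutagenicity, tumor promotion/inhibition) compiled from published and report sources, historical span 1985-2011, not updated.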

`O=NN1CCC(=O)CC1` was tested, and the carcinogen call (Species: RAT, Strain/Sex: F344/FEMALE, Route: ORAL, Dose: 0, 80 ML OF SOLUTION OF 115 MG/L IN NEUTRAL DEIONIZED DRINKING WATER 5 D/WK FOR 30 WK (STUDY DURATION: 60 WK), Tumor Site: Type of Lesion: NASAL CAVITY: ESTHESIONEUROEPITHELIOMA, FORESTOMACH: TUMOR, ESOPHAGUS: TUMOR, TONGUE: TUMOR, LIVER: HEPATOCELLULAR CARCI, Tumor Site: Type of Lesion: NASAL CAVITY: ESTHESIONEUROEPITHELIOMA, FORESTOMACH: TUMOR, ESOPHAGUS: TUMOR, TONGUE: TUMOR, LIVER: HEPATOCELLULAR CARCI) was “active; positive”.
With `ONc1ccc2ccccc2c1` the carcinogen call (Species: DOG, Strain/Sex: BEAGLE, Route: INTRAVESICULAR, Dose: 5 MG IN DMSO EVERY TWO WK FOR 30 MO, Tumor Site: Type of Lesion: URINARY BLADDER: PAPILLARY TRANSITIONAL CELL CARCINOMA (INVASIVE)) was “active; positive”, the carcinogen call (Species: MOUSE, Strain/Sex: BALB, Route: SUBCUTANEOUS, Dose: 100 UG IN AQUEOUS GELATIN 1/D FOR 5 D, Tumor Site: Type of Lesion: LUNG: ADENOMA) was “active; positive” and the carcinogen call (Species: MOUSE, Strain/Sex: SWISS/FEMALE, Route: SUBCUTANEOUS, Dose: 100 UG IN GELATIN ON D 1, 3 AND 5 OF LIFE, Tumor Site: Type of Lesion: LUNG: ADENOMA, CARCINOMA) was “active; positive”. The carcinogen call (Species: MOUSE, Strain/Sex: SWISS/MALE, Route: SUBCUTANEOUS, Dose: 100 UG IN GELATIN ON D 1, 3 AND 5 OF LIFE, Tumor Site: Type of Lesion: LIVER: HEPATOMA) was “active; positive” and the carcinogen call (Species: RAT, Strain/Sex: STRAIN-CB/MALE, Route: INTRAPERITONEAL, Dose: 50 MG/KG IN ARACHIS OIL 2/WK FOR 3 MO, Tumor Site: Type of Lesion: PERITONEAL CAVITY: SARCOMA, CARCINOMA) was “active; positive”.
`c1ccc2c(c1)ccc1ccccc12` was tested, and the carcinogen call (Species: RAT, Strain/Sex: OSBORNE-MENDEL/FEMALE, Route: INTRAPULMONARY IMPLANT, Dose: 0, 1, 3, 10 MG IN BEESWAX AND TRIOCTANOIN IMPLANTED IN LUNG (STUDY DURATION: 141 WK), Dose: 0, 1, 3, 10 MG IN BEESWAX AND TRIOCTANOIN IMPLANTED IN LUNG (STUDY DURATION: 141 WK)) was “inactive; negative”.
In the case of `CCCCN(N=O)C(=O)CCC`, the carcinogen call (Species: RAT, Strain/Sex: F344/MALE,FEMALE, Route: SUBCUTANEOUS, Dose: 38 UMOL/KG IN OLIVE OIL 1/WK FOR 10 WK, Tumor Site: Type of Lesion: INJECTION SITE: MALIGNANT FIBROUS HISTIOCYTOMA, LUNG: ADENOMA) is reported as “active; positive”.
`OCCN(CCO)C(=S)S` was tested, and the carcinogen call (Species: MOUSE, Strain/Sex: B6AKF1/MALE, Route: GAVAGE/ORAL, Dose: 464 MG/KG FROM D 7-28 OF LIFE THEN 1112 MG/KG IN DIET, Tumor Site: Type of Lesion: LIVER: HEPATOMA) was “active; positive”, the carcinogen call (Species: MOUSE, Strain/Sex: B6C3F1/MALE,FEMALE, Route: GAVAGE/ORAL, Dose: 464 MG/KG FROM D 7-28 OF LIFE THEN 1112 MG/KG IN DIET, Tumor Site: Type of Lesion: LIVER: HEPATOMA) was “active; positive” and the carcinogen call (Species: RAT, Strain/Sex: STRAIN-CD/MALE,FEMALE, Route: ORAL, Dose: 500, 1000 PPM IN DIET FOR 78 WK) was “inactive; negative”.
`O.O.O.O.O.O.O.O=S(=O)(O)O.[Co+2]` was tested, and the carcinogen call (Species: MOUSE, Strain/Sex: B6C3F1/FEMALE, Route: INHALATION, Dose: 0, 0.3, 1, 3 MG/M3 6HR/D 5 D/WK FOR 105 WK (STUDY DURATION: 105 WK), Dose: 0, 0.3, 1, 3 MG/M3 6HR/D 5 D/WK FOR 105 WK (STUDY DURATION: 105 WK), Tumor Site: Type of Lesion: LUNG: ALVEOLAR/BRONCHIOLAR ADENOMA, ALVEOLAR/BRONCHIOLAR CARCINOMA) was “active; positive”, the carcinogen call (Species: MOUSE, Strain/Sex: B6C3F1/MALE, Route: INHALATION, Dose: 0, 0.3, 1, 3 MG/M3 6HR/D 5 D/WK FOR 105 WK (STUDY DURATION: 105 WK), Dose: 0, 0.3, 1, 3 MG/M3 6HR/D 5 D/WK FOR 105 WK (STUDY DURATION: 105 WK), Tumor Site: Type of Lesion: LUNG: ALVEOLAR/BRONCHIOLAR ADENOMA, ALVEOLAR/BRONCHIOLAR CARCINOMA) was “active; positive” and the carcinogen call (Species: RAT, Strain/Sex: F344/FEMALE, Route: INHALATION, Dose: 0, 0.3, 1, 3 MG/M3 6HR/D 5 D/WK FOR 105 WK (STUDY DURATION: 105 WK), Dose: 0, 0.3, 1, 3 MG/M3 6HR/D 5 D/WK FOR 105 WK (STUDY DURATION: 105 WK), Tumor Site: Type of Lesion: LUNG: ALVEOLAR/BRONCHIOLAR ADENOMA, ALVEOLAR/BRONCHIOLAR CARCINOMA, ADRENAL MEDULLA: BENIGN, COMPLEX, OR MALIGNANT PHEOC) was “active; positive”. For the same compound, the carcinogen call (Species: RAT, Strain/Sex: F344/N/MALE, Route: INHALATION, Dose: 0, 0.3, 1, 3 MG/M3 6HR/D 5 D/WK FOR 105 WK (STUDY DURATION: 105 WK), Dose: 0, 0.3, 1, 3 MG/M3 6HR/D 5 D/WK FOR 105 WK (STUDY DURATION: 105 WK), Tumor Site: Type of Lesion: LUNG: ALVEOLAR/BRONCHIOLAR ADENOMA) was “active; positive”.
For `CCCCCCCCCCCCCC(=O)ON(C(C)=O)c1ccc2c(c1)Cc1cc(I)ccc1-2`, the carcinogen call (Species: RAT, Strain/Sex: F344/MALE, Route: SUBCUTANEOUS, Dose: 10.6 UMOL IN 0.2 ML DMSO-TRIOCTANOIN 1/WK FOR 6 WK, Tumor Site: Type of Lesion: INJECTION SITE: FIBROSARCOMA OR FIBROMYOSARCOMA OR FIBROLIPOSARCOMA) was “active; positive”.
`Clc1nc(Cl)nc(Nc2ccccc2Cl)n1` was tested, and the carcinogen call (Species: MOUSE, Strain/Sex: B6C3F1/FEMALE, Route: ORAL, Dose: 0, 500, 1000 PPM IN DIET, Dose: 0, 500, 1000 PPM IN DIET) was “inactive; negative”, the carcinogen call (Species: MOUSE, Strain/Sex: B6C3F1/MALE, Route: ORAL, Dose: 0, 500, 1000 PPM IN DIET, Dose: 0, 500, 1000 PPM IN DIET) was “inactive; negative” and the carcinogen call (Species: Mouse, Strain/Sex: CD-1/Female, Route: Oral, Dose: 0, 50, 250, 1250 ppm in feed for 2 yrs, Dose: 0, 50, 250, 1250 ppm in feed for 2 yrs) was “inactive; negative; purity 93.5%”. For the same compound, the carcinogen call (Species: Mouse, Strain/Sex: CD-1/Male, Route: Oral, Dose: 0, 50, 250, 1250 ppm in feed for 2 yrs, Dose: 0, 50, 250, 1250 ppm in feed for 2 yrs) was “inactive; negative; purity 93.5%”, the carcinogen call (Species: RAT, Strain/Sex: F344/FEMALE, Route: ORAL, Dose: 0, 500, 1000 PPM IN DIET, Dose: 0, 500, 1000 PPM IN DIET) was “inactive; negative” and the carcinogen call (Species: RAT, Strain/Sex: F344/MALE, Route: ORAL, Dose: 0, 500, 1000 PPM IN DIET, Dose: 0, 500, 1000 PPM IN DIET) was “inactive; negative”. The carcinogen call (Species: Rat, Strain/Sex: Sprague Dawley/Female, Route: Oral, Dose: 0, 50, 330, 2000 ppm in feed for 104 wks, Dose: 0, 50, 330, 2000 ppm in feed for 104 wks) was “inactive; negative; purity 93.5%” and the carcinogen call (Species: Rat, Strain/Sex: Sprague Dawley/Male, Route: Oral, Dose: 0, 50, 330, 2000 ppm in feed for 104 wks, Dose: 0, 50, 330, 2000 ppm in feed for 104 wks) was “inactive; negative; purity 93.5%”.
